# Results as given in patent US5670358A, “Method for inhibiting chymopapain and papain enzyme activity with polysaccharides of animal origin” (Baxter International Inc., priority 1995, dated 1997).
# Key:
# papain = assay: Papain protease activity, hydrolysis of BAPNA synthetic substrate (absorbance 415 nm); assay type: biochemical, papaya; conditions: 37° C., Tricine buffer 50 mM, 10 mM CaCl2
# Procedure: (§1) The invention will be better understood by reference to the following nonlimiting examples which illustrate the use of the animal-derived polysaccharide materials of the present invention in inhibiting various enzymes. In these examples the activities of chymopapain and papain were determined by assay using BAPNA, N-benzoyl-L-arginine-p-nitroanilide synthetic substrate by measuring the increase in absorbance at 415 nm. The activity of clostripain was determined by assay using BAEE, N-benzoyl-L-arginine ethyl ester synthetic substrate by measuring the increase in absorbance at […]. The activity of trypsin was determined by assay using BAPNA.
# (§2) Protease activity was determined by measuring the reaction rates for the hydrolysis of synthetic substrates for the enzymes trypsin, chymopapain, papain, and clostripain. The increase in absorbance at 415 nm was used for the measurement of the reaction rates for trypsin, chymopapain and papain upon a BAPNA substrate. The increase in absorbance at 253 nm was used for the measurement of the reaction rates for clostripain. Trypsin, chymopapain and papain activities were determined at 37° C. in Tricine buffer, 50 mM, containing 10 mM CaCl2. Clodytipain activity was determined at room temperature. Chymopapain, papain, and clostripain were activated with L-cysteine or dithiothreitol reducing agent prior to assay. Concentration of reducing agent in the substrate solution was maintained at 5 mM by addition of reducing agent to the substrate solution.
# The percentage inhibition was obtained from the ratio of enzyme activity in the presence of inhibitor to the activity of a control to which no inhibitor was added.
# trypsin = assay: Trypsin protease activity, hydrolysis of BAPNA synthetic substrate (absorbance 415 nm); assay type: biochemical; conditions: for Trypsin % Inhibited: 37° C., Tricine buffer 50 mM, 10 mM CaCl2
# Procedure: as §1, §2
# (§3) Glycogen was dissolved in the assay buffer to a final concentration of 1%. The percentage inhibition was obtained from the ratio of enzyme activity in the presence of inhibitor to the activity of a control to which no inhibitor was added.
# chymopapain = assay: Chymopapain protease activity, hydrolysis of BAPNA synthetic substrate (absorbance 415 nm); assay type: biochemical, papaya; conditions: for Chymopapain % Inhibited: 37° C., Tricine buffer 50 mM, 10 mM CaCl2
# Procedure: as §1, §2, §3
# clostripain = assay: Clostripain protease activity, hydrolysis of BAEE synthetic substrate (absorbance 253 nm); assay type: biochemical; conditions: for Clostripain % Inhibited: room temperature
# Procedure: as §1, §2, §3
# [1] = inhibitor concentration 0.5%, listed as hyaluronic acid
# [2] = inhibitor concentration 1%, listed as glycogen
Substance,Papain % Inhibited (papain; inhibitor concentration 0.5%),effectiveness in inhibiting trypsin relative to chymopapain and papain (trypsin; inhibitor concentration 0.5%),Trypsin % Inhibited (trypsin; inhibitor concentration 0.5%),Chymopapain % Inhibited (chymopapain; inhibitor concentration 0.5%),effectiveness in inhibiting clostripain relative to chymopapain and papain (clostripain; inhibitor concentration 0.5%),Clostripain % Inhibited (clostripain; inhibitor concentration 0.5%),Papain % Inhibited (papain; [1]),Trypsin % Inhibited (trypsin; [1]),Chymopapain % Inhibited (chymopapain; [1]),Clostripain % Inhibited (clostripain; [1]),Papain % Inhibited (papain; inhibitor concentration 1%),Trypsin % Inhibited (trypsin; inhibitor concentration 1%),Trypsin % Inhibited (trypsin; [2]),effectiveness as inhibitor of chymopapain and papain activity relative to trypsin activity (chymopapain; inhibitor concentration 1%),Chymopapain % Inhibited (chymopapain; inhibitor concentration 1%),Clostripain % Inhibited (clostripain; inhibitor concentration 1%),Clostripain % Inhibited (clostripain; [2])
Desulfated heparin,9.8%,less than one-half as effective,4.1%,8.8%,about one-tenth as effective,0.8%,–,–,–,–,–,–,–,–,–,–,–
Hyaluronic acid,35.8%,–,0%,34.2%,–,0%,effective,no inhibiting effect,effective,no inhibiting effect,–,–,–,–,–,–,–
Glycogen,–,–,–,–,–,–,–,–,–,–,12.5%,1.1%,about 1%,10-20 times,17%,0%,no inhibiting effect
